Experimental data: article PMC7845594, “Novel Immune Modulators Enhance Caenorhabditis elegans Resistance to Multiple Pathogens” (mSphere, 2021)
Several values for one entry are separate records, joined by “and”; a condition that tells them apart may be missing. Identical values can stand only once.

How the values were obtained:
[1] = system: C. elegans host defense pathway genes; test: nanoString expression of 115 immune- and stress-responsive genes; details: 100 μM LK molecules, 16 h
In short: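 Wild-type young adult C. elegans (2,000 per condition) exposed to 100 μM LK molecules or DMSO control in S Basal medium for 16 h. RNA purified and expression of 115 immune- and stress-responsive genes quantified by nanoString; two biological replicates per condition.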

[2] = system: glp-4(bn2) worms exposed to methicillin-resistant S. aureus strain MRSA131; test: S. aureus infection assay (liquid); format: in vivo, Caenorhabditis elegans; details: for S. aureus EC: glp-4(bn2) worms, 96 h, ± 95% confidence interval
Experimental: Enterococcus faecalis and Staphylococcus aureus are Gram-positive bacterial species frequently responsible for nosocomial infections ([24], [25]). These bacterial species readily infect C. elegans and liquid-based pathogenesis models have been developed for each ([26][–][28]). Sterile, young adult glp-4(bn2) worms were incubated with either E. faecalis or S. aureus and various concentrations of the five compounds. […] Importantly, P. aeruginosa, E. faecalis, and S. aureus use very different mechanisms to kill C. elegans (pyoverdine-mediated mitochondrial damage, gelatinase-mediated damage to the colonized intestine, and multi-toxin-mediated intestinal effacement and damage, respectively) ([29][–][33]). The ability of these compounds to rescue against multiple pathogens that utilize a diverse set of virulence factors and mechanisms of pathogenesis further supports the idea that at least a portion of these compounds’ activity is mediated by stimulating innate immunity.
FIG 2 A subset of LK molecules rescue against E. faecalis and S. aureus. […] Compounds were serially diluted 2-fold, and young adult glp-4(bn2) worms were incubated with the pathogen for 80 h (E. faecalis) or 96 h (S. aureus). The concentrations shown are based on the mean value for at least three replicates. (B and C) Percentages of dead C. elegans after exposure to E. faecalis (B) or S. aureus (C). A representative biological replicate is shown. Each condition included at least six wells per replicate, each well contained approximately 20 worms. Three biological replicates were performed. *, P < 0.05; **, P < 0.01; ***, P < 0.001. P values were calculated using Student’s t test. Error bars represent the standard error of the mean.
The S. aureus killing assay was performed as previously described with some changes ([26]). A single colony was used to inoculate a 5-ml aerobic culture of TSB. The following day, 100 µl of this culture was used to inoculate a second 10 ml of TSB culture wrapped with parafilm. Then, 384-well plates were made containing 10% TSB, and S. aureus from the second culture was resuspended in S Basal medium to a final OD of 0.04. Compounds were then serially diluted in a DMSO-S Basal solution to achieve the desired concentration in the wells with a 1% DMSO final concentration for all compounds. After 5 days, the worms were transferred to new plates using a 0.05% Tween solution to prevent S. aureus biofilm background fluorescence from obscuring dead worms. Subsequent washing, staining, imaging, and image analysis were performed identically to Pseudomonas liquid killing. EC values were defined as the minimum concentration that provided statistically significant rescue. At least three biological replicates were performed.

CN(C)/N=N/c1ccc(-c2cn(Cc3ccccc3)cn2)cc1 [LK38]
B0024.4 expression, induction [1]: 3.17 fold
C02B4.2 nhr-17 expression, induction [1]: 1.71 fold
C06B3.7 expression, induction [1]: 1.11 fold
C07G3.2 irg-1 expression, induction [1]: 2.65 fold
C12C8.1 hsp-70 expression, induction [1]: 0.53 fold
C15F1.7 sod-1 expression, induction [1]: 1.43 fold
C29F7.2 expression, induction [1]: 32.57 fold
C31A11.5 oac-6 expression, induction [1]: 9.73 fold
C32D5.12 expression, induction [1]: 3.71 fold
C32H11.1 expression, induction [1]: 18.31 fold
C32H11.3 expression, induction [1]: 11.99 fold
C34G6.4 pgp-2 expression, induction [1]: 4.68 fold
C37C3.10 expression, induction [1]: 2.39 fold
C37H5.8 hsp-6 expression, induction [1]: 1.74 fold
C49G7.5 irg-2 expression, induction [1]: 3.91 fold
F08F8.5 numr-1 expression, induction [1]: 1.76 fold
F08H9.4 expression, induction [1]: 1.05 fold
F14F9.3 expression, induction [1]: 6.65 fold
F22B5.4 expression, induction [1]: 4.88 fold
F22H10.2 expression, induction [1]: 0.89 fold
F26A3.4 expression, induction [1]: 1.16 fold
F35E8.11 cdr-1 expression, induction [1]: 136.66 fold
F35G2.4 phy-2 expression, induction [1]: 1.91 fold
F37B12.2 gcs-1 expression, induction [1]: 1.21 fold
F43E2.8 hsp-4 expression, induction [1]: 1.31 fold
F44E5.5 expression, induction [1]: 0.94 fold
F49F1.6 expression, induction [1]: 3.06 fold
F49F1.7 expression, induction [1]: 27.43 fold
F49H6.13 expression, induction [1]: 1.54 fold
F54B8.4 expression, induction [1]: 5.05 fold
F55G11.2 expression, induction [1]: 2.13 fold
F59A7.1 clec-206 expression, induction [1]: 56.72 fold
F59B10.4 expression, induction [1]: 3.99 fold
H12D21.1 nspa-1 expression, induction [1]: 0.84 fold
H23N18.1 ugt-13 expression, induction [1]: 7.19 fold
H23N18.3 ugt-8 expression, induction [1]: 35.45 fold
K05B2.4 expression, induction [1]: 25.19 fold
K08F4.7 gst-4 expression, induction [1]: 1.42 fold
K09A9.1 nipi-3 expression, induction [1]: 2.18 fold
K10D11.2 expression, induction [1]: 2.89 fold
K10G4.3 expression, induction [1]: 3.15 fold
R03D7.6 gst-5 expression, induction [1]: 21.05 fold
R08H2.1 dhs-23 expression, induction [1]: 243.00 fold
R10E8.3 expression, induction [1]: 1.97 fold
T19D12.3 expression, induction [1]: 1.91 fold
T19H12.1 ugt-9 expression, induction [1]: 8.16 fold
T21E8.1 pgp-6 expression, induction [1]: 3.69 fold
T22B7.3 expression, induction [1]: 1.08 fold
T24C4.4 expression, induction [1]: 1.30 fold
T24E12.5 expression, induction [1]: 2.60 fold
T27E4.3 hsp-16.48 expression, induction [1]: 0.91 fold
T27E4.8 hsp-16.1 expression, induction [1]: 0.90 fold
T27F6.8 expression, induction [1]: 3.28 fold
T28C12.4 expression, induction [1]: 8.72 fold
W02D9.10 expression, induction [1]: 0.89 fold
Y22D7AL.5 hsp-60 expression, induction [1]: 0.89 fold
Y38E10A.15 nspe-7 expression, induction [1]: 1.82 fold
Y46H3A.2 hsp-16.41 expression, induction [1]: 0.62 fold
Y46H3A.3 hsp-16.2 expression, induction [1]: 0.79 fold
Y56A3A.33 expression, induction [1]: 1.72 fold
Y58A7A.5 expression, induction [1]: 2.03 fold
ZC376.7 atfs-1 expression, induction [1]: 2.11 fold
ZC443.6 ugt-16 expression, induction [1]: 78.74 fold
ZK697.6 gst-21 expression, induction [1]: 47.19 fold
S. aureus EC [2]: > 64 µM

O=c1cc(CNc2ccc(Br)cc2)nc2sccn12 [LK56]
B0024.4 expression, induction [1]: 2.13 fold
C02B4.2 nhr-17 expression, induction [1]: 1.97 fold
C06B3.7 expression, induction [1]: 1.14 fold
C07G3.2 irg-1 expression, induction [1]: 1.40 fold
C12C8.1 hsp-70 expression, induction [1]: 1.04 fold
C15F1.7 sod-1 expression, induction [1]: 2.09 fold
C29F7.2 expression, induction [1]: 14.61 fold
C31A11.5 oac-6 expression, induction [1]: 2.72 fold
C32D5.12 expression, induction [1]: 1.17 fold
C32H11.1 expression, induction [1]: 8.05 fold
C32H11.3 expression, induction [1]: 1.05 fold
C34G6.4 pgp-2 expression, induction [1]: 1.72 fold
C37C3.10 expression, induction [1]: 3.56 fold
C37H5.8 hsp-6 expression, induction [1]: 1.45 fold
C49G7.5 irg-2 expression, induction [1]: 2.13 fold
F08F8.5 numr-1 expression, induction [1]: 3.14 fold
F08H9.4 expression, induction [1]: 1.04 fold
F14F9.3 expression, induction [1]: 1.84 fold
F22B5.4 expression, induction [1]: 2.10 fold
F22H10.2 expression, induction [1]: 1.87 fold
F26A3.4 expression, induction [1]: 1.98 fold
F35E8.11 cdr-1 expression, induction [1]: 47.99 fold
F35G2.4 phy-2 expression, induction [1]: 1.43 fold
F37B12.2 gcs-1 expression, induction [1]: 1.20 fold
F43E2.8 hsp-4 expression, induction [1]: 1.17 fold
F44E5.5 expression, induction [1]: 1.42 fold
F49F1.6 expression, induction [1]: 1.76 fold
F49F1.7 expression, induction [1]: 4.06 fold
F49H6.13 expression, induction [1]: 1.42 fold
F54B8.4 expression, induction [1]: 3.28 fold
F55G11.2 expression, induction [1]: 2.09 fold
F59A7.1 clec-206 expression, induction [1]: 12.55 fold
F59B10.4 expression, induction [1]: 1.53 fold
H12D21.1 nspa-1 expression, induction [1]: 2.13 fold
H23N18.1 ugt-13 expression, induction [1]: 4.36 fold
H23N18.3 ugt-8 expression, induction [1]: 20.66 fold
K05B2.4 expression, induction [1]: 2.91 fold
K08F4.7 gst-4 expression, induction [1]: 1.69 fold
K09A9.1 nipi-3 expression, induction [1]: 2.25 fold
K10D11.2 expression, induction [1]: 1.72 fold
K10G4.3 expression, induction [1]: 1.36 fold
R03D7.6 gst-5 expression, induction [1]: 23.60 fold
R08H2.1 dhs-23 expression, induction [1]: 182.18 fold
R10E8.3 expression, induction [1]: 1.01 fold
T19D12.3 expression, induction [1]: 2.00 fold
T19H12.1 ugt-9 expression, induction [1]: 6.54 fold
T21E8.1 pgp-6 expression, induction [1]: 0.89 fold
T22B7.3 expression, induction [1]: 1.38 fold
T24C4.4 expression, induction [1]: 1.93 fold
T24E12.5 expression, induction [1]: 2.19 fold
T27E4.3 hsp-16.48 expression, induction [1]: 1.38 fold
T27E4.8 hsp-16.1 expression, induction [1]: 1.30 fold
T27F6.8 expression, induction [1]: 2.98 fold
T28C12.4 expression, induction [1]: 7.67 fold
W02D9.10 expression, induction [1]: 2.27 fold
Y22D7AL.5 hsp-60 expression, induction [1]: 1.56 fold
Y38E10A.15 nspe-7 expression, induction [1]: 0.87 fold
Y46H3A.2 hsp-16.41 expression, induction [1]: 1.11 fold
Y46H3A.3 hsp-16.2 expression, induction [1]: 1.21 fold
Y56A3A.33 expression, induction [1]: 2.67 fold
Y58A7A.5 expression, induction [1]: 1.53 fold
ZC376.7 atfs-1 expression, induction [1]: 1.86 fold
ZC443.6 ugt-16 expression, induction [1]: 27.68 fold
ZK697.6 gst-21 expression, induction [1]: 8.40 fold
Need of MDT-15 for rescue (mdt-15(RNAi)) ([2]; S. aureus, 32 µM): required
S. aureus EC [2]: 56 µM and 56 ± 12.8 µM
